# From patent publication US8835476B2, “Synthesis of novel antimicrobials” (priority 2005, dated 2014)
# Columns and labels:
# Format in all cases: cell-based
# A. anitratus ATCC 19606 = assay: Broth microdilution MIC, ATCC strains; settings: Acinetobacter calcoaceticus, ATCC19606; A. anitratus ATCC 19606; read-out: MIC (growth inhibition, microdilution method)
# Description: (§1) All clinical isolates tested were from The North American Urinary Tract Infection Collaborative Alliance (NAUTICA) which is a UTI surveillance study involving 40 medical centres (30 from the US and 10 from Canada). Each centre submitted up to 50 consecutive outpatient midstream urine isolates. All isolates were deemed significant urinary tract pathogens by individual laboratory criteria and identified to the species level by each laboratory's existing protocol. Isolates were transported to the coordinating laboratory (Health Sciences Centre, Winnipeg, Canada) on charcoal swabs. Only one isolate per patient was accepted. Upon receipt, isolates were cultured by the coordinating laboratory, stocked in skim milk, and stored at −80° C. awaiting reference antibiotic susceptibility testing. Elementary demographic information was also compiled for each isolate. Isolates were selected randomly from the above pool to represent 18 different species of Enterobacteriaceae and non-Enterobacteriaceae. An average of 5 strains of each species were tested for a total of 93 organisms. In addition, 23 reference (ATCC) [both gram negative and gram positive] strains were tested.
# (§2) Susceptibilities to the compounds were determined using the National Committee for Clinical Laboratory Standards (NCCLS) M7-A6 broth microdilution method. […] DMSO controls were incorporated into the panel to mimic the quantity of DMSO used in dissolving some of the compounds at the higher concentrations. Each final panel well volume was 100 μl with a bacterial inoculum of 5×10^5 colony forming units (CFU)/ml. Panels were read following 16 to 20 hours of incubation at 35° C. in ambient air. The minimum inhibitory concentration (MIC) was defined as the lowest concentration of antimicrobial inhibiting visible growth. Quality control (QC) was performed using four ATCC QC organisms that were run with every batch set up to insure reproducibility.
# E. cloacae ATCC 23355 = assay: Broth microdilution MIC, ATCC strains; settings: Enterobacter cloacae, ATCC23355; E. cloacae ATCC 23355; read-out: MIC (growth inhibition, microdilution method)
# Description: as §1, §2
# E. faecium ATCC 35667 = assay: Broth microdilution MIC, ATCC strains; settings: Enterococcus faecium, ATCC35667, read-out: MIC (growth inhibition, microdilution method)
# Description: as §1, §2
# MRSA ATCC 33591 = assay: Broth microdilution MIC, ATCC strains; settings: Staphylococcus aureus; MRSA ATCC 33591; read-out: MIC (growth inhibition, microdilution method)
# Description: as §1, §2
# P. mirabilis ATCC 29245 = assay: Broth microdilution MIC, ATCC strains; settings: Proteus mirabilis, ATCC29245; P. mirabilis ATCC 29245; read-out: MIC (growth inhibition, microdilution method)
# Description: as §1, §2
# [1] = test system: Ps. aeruginosa ATCC 27853; assay: Broth microdilution MIC, ATCC strains; settings: Pseudomonas aeruginosa, ATCC27853; Ps. aeruginosa ATCC 27853; read-out: MIC (growth inhibition, microdilution method)
# Description: as §1, §2
# [2] = test system: S. epidermidis ATCC 14990; assay: Broth microdilution MIC, ATCC strains; settings: Staphylococcus epidermidis, ATCC14990; S. epidermidis ATCC 14990; read-out: MIC (growth inhibition, microdilution method)
# Description: as §1, §2
# [3] = test system: S. liquefaciens ATCC 27592; assay: Broth microdilution MIC, ATCC strains; settings: S. liquefaciens ATCC 27592; read-out: MIC (growth inhibition, microdilution method)
# Description: as §1, §2
# [4] = test system: S. maltophilia ATCC 13637; assay: Broth microdilution MIC, ATCC strains; settings: Stenotrophomonas maltophilia, ATCC13637; S. maltophilia ATCC 13637; read-out: MIC (growth inhibition, microdilution method)
# Description: as §1, §2
# [5] = test system: S. saprophyticus ATCC 15305; assay: Broth microdilution MIC, ATCC strains; settings: Staphylococcus saprophyticus, ATCC15305; S. saprophyticus ATCC 15305; read-out: MIC (growth inhibition, microdilution method)
# Description: as §1, §2
# S. warneri ATCC 27836 = assay: Broth microdilution MIC, ATCC strains; settings: Staphylococcus warneri, ATCC27836; S. warneri ATCC 27836; read-out: MIC (growth inhibition, microdilution method)
# Description: as §1, §2
# P. rettgeri CAP = assay: Broth microdilution MIC, reference strains; settings: Providencia rettgeri; P. rettgeri (CAP in Table 1); read-out: MIC (growth inhibition, microdilution method)
# Description: as §1, §2
# [6] = test system: A. baumanii clinical isolates; assay: Broth microdilution MIC, clinical isolate strains (NAUTICA); settings: Table 4B; each table row is one clinical isolate; unit assumed
# Description: as §1, §2
# [7] = test system: B. cepacia clinical isolates; assay: as above; settings: Table 4B; each table row is one clinical isolate; unit assumed
# Description: as §1, §2
# [8] = test system: C. amalonaticus clinical isolates; assay: as above; settings: Table 4B; each table row is one clinical isolate; unit assumed
# Description: as §1, §2
# [9] = test system: C. freundii clinical isolates; assay: as above; settings: Table 4B; each table row is one clinical isolate; in µg/mL (unit assumed)
# Description: as §1, §2
# [10] = test system: C. koseril clinical isolates; assay: as above; settings: Table 4B; each table row is one clinical isolate; unit assumed
# Description: as §1, §2
# [11] = test system: E. aerogenes clinical isolates; assay: as above; settings: Table 4B; each table row is one clinical isolate; unit assumed
# Description: as §1, §2
# [12] = test system: E. cloacae clinical isolates; assay: as above; settings: Table 4B; each table row is one clinical isolate; unit assumed
# Description: as §1, §2
# [13] = test system: E. coli clinical isolates; assay: as above; settings: Table 4B; each table row is one clinical isolate; unit assumed
# Description: as §1, §2
# [14] = test system: K. oxytoca clinical isolates; assay: as above; settings: Table 4B; each table row is one clinical isolate; unit assumed
# Description: as §1, §2
# [15] = test system: K. pneumoniae clinical isolates; assay: as above; settings: Table 4B; each table row is one clinical isolate; unit assumed
# Description: as §1, §2
# [16] = test system: M. morganii clinical isolates; assay: as above; settings: Table 4B; each table row is one clinical isolate; unit assumed
# Description: as §1, §2
# [17] = test system: P. mirabilis clinical isolates; assay: as above; settings: Table 4B; each table row is one clinical isolate; unit assumed
# Description: as §1, §2
# [18] = test system: P. retgerri clinical isolates; assay: as above; settings: Table 4B; each table row is one clinical isolate; unit assumed
# Description: as §1, §2
# [19] = test system: P. stuartii clinical isolates; assay: as above; settings: Table 4B; each table row is one clinical isolate; unit assumed
# Description: as §1, §2
# [20] = test system: P. vulgaris clinical isolates; assay: as above; settings: Table 4B; each table row is one clinical isolate; unit assumed
# Description: as §1, §2
# [21] = test system: S. liquifaciens clinical isolates; assay: as above; settings: Table 4B; each table row is one clinical isolate; unit assumed
# Description: as §1, §2
# [22] = test system: S. maltophilia clinical isolates; assay: as above; settings: Table 4B; each table row is one clinical isolate; unit assumed
# Description: as §1, §2
# [23] = test system: S. marcescens clinical isolates; assay: as above; settings: Table 4B; each table row is one clinical isolate; unit assumed
# Description: as §1, §2
SMILES,MIC (A. anitratus ATCC 19606) [µg/mL],MIC (E. cloacae ATCC 23355) [µg/mL],MIC (E. faecium ATCC 35667) [µg/mL],MIC (MRSA ATCC 33591) [µg/mL],MIC (P. mirabilis ATCC 29245) [µg/mL],MIC [1] [µg/mL],MIC [2] [µg/mL],MIC [3] [µg/mL],MIC [4] [µg/mL],MIC [5] [µg/mL],MIC (S. warneri ATCC 27836) [µg/mL],MIC (P. rettgeri CAP) [µg/mL],"MIC, A. BAUMANII [6] [µg/mL]","MIC, B. CEPACIA [7] [µg/mL]","MIC, C. AMALONATICUS [8] [µg/mL]","MIC, C. FREUNDII [9]","MIC, C. KOSERI [10] [µg/mL]","MIC, E. AEROGENES [11] [µg/mL]","MIC, E. CLOACAE [12] [µg/mL]","MIC, E. COLI [13] [µg/mL]",further results
"Cn1nnc(-c2cc(-c3ccc(F)cc3)sc2-c2ccc(F)cc2)n1 [DNM-132, 5-(2,5-bis(4-fluorophenyl)thiophen-3-yl)-2-methyl-2H-tetrazole]",> 16,> 16,> 16,> 16,> 16,> 16,> 16,> 16,> 16,> 16,> 16,> 16,> 16,> 16,> 16,>16,> 16,> 16,> 16,> 16,"MIC, K. OXYTOCA [14]: > 16 µg/mL; MIC, K. PNEUMONIAE [15]: > 16 µg/mL; MIC, M. MORGANII [16]: > 16 µg/mL; MIC, P. MIRABILIS [17]: > 16 µg/mL; MIC, P. RETTGERI [18]: > 16 µg/mL; MIC, P. STUARTII [19]: > 16 µg/mL; MIC, P. VULGARIS [20]: > 16 µg/mL; MIC, S. LIQUEFACIENS [21]: > 16 µg/mL; MIC, S. MALTOPHILIA [22]: > 16 µg/mL; MIC, S. MARCESCENS [23]: > 16 µg/mL"
"Cn1nnnc1-c1cc(-c2ccc(F)cc2)sc1-c1ccc(F)cc1 [DNM-133, 5-(2,5-Bis(4-fluorophenyl)thiophen-3-yl)-1-methyl-1H-tetrazole]",> 16,> 16,> 16,> 16,> 16,> 16,> 16,> 16,> 16,> 16,> 16,> 16,> 16,> 16,> 16,>16,> 16,> 16,> 16,> 16,"MIC, K. OXYTOCA [14]: > 16 µg/mL; MIC, K. PNEUMONIAE [15]: > 16 µg/mL; MIC, M. MORGANII [16]: > 16 µg/mL; MIC, P. MIRABILIS [17]: > 16 µg/mL; MIC, P. RETTGERI [18]: > 16 µg/mL; MIC, P. STUARTII [19]: > 16 µg/mL; MIC, P. VULGARIS [20]: > 16 µg/mL; MIC, S. LIQUEFACIENS [21]: > 16 µg/mL; MIC, S. MALTOPHILIA [22]: > 16 µg/mL; MIC, S. MARCESCENS [23]: > 16 µg/mL"
"O=C(O)c1sc(-c2ccc(F)cc2)cc1-c1nnn[nH]1 [DNM-141, 5-(4-Fluoro-phenyl)-3-(1H-tetrazol-5-yl)-thiophene-2-carboxylic acid]",> 16,> 16,> 16,> 16,> 16,> 16,> 16,> 16,> 16,> 16,> 16,> 16,> 16,> 16,> 16,>16,> 16,> 16,> 16,> 16,"MIC, K. OXYTOCA [14]: > 16 µg/mL; MIC, K. PNEUMONIAE [15]: > 16 µg/mL; MIC, M. MORGANII [16]: > 16 µg/mL; MIC, P. MIRABILIS [17]: > 16 µg/mL; MIC, P. RETTGERI [18]: > 16 µg/mL; MIC, P. STUARTII [19]: > 16 µg/mL; MIC, P. VULGARIS [20]: > 16 µg/mL; MIC, S. LIQUEFACIENS [21]: > 16 µg/mL; MIC, S. MALTOPHILIA [22]: > 16 µg/mL; MIC, S. MARCESCENS [23]: > 16 µg/mL"
